Data published in patent US11932593B1, “8-(3-bromobenzylideneamino)naphthalene-1,3-disulfonic acid as an antioxidant compound” (KING FAISAL UNIVERSITY, priority 2023, dated 2024).

Assay: DPPH radical scavenging antioxidant test
Assay type: biochemical
Settings: 517 nm; for Inhibition (radical scavenging inhibition): compound 3 μM in ethanol, 0.2 mL DPPH (0.75 mM), 30 min incubation in the dark
Procedure: The antioxidant properties of the 8-(3-bromobenzylideneamino)naphthalene-1,3-disulfonic acid were studied by adding 0.2 mL DPPH (0.75 mM)) to compound 8-(3-bromobenzylideneamino)naphthalene-1,3-disulfonic acid (III) (3 μM) in ethanol. After 30 min of incubation in the dark, the absorbance was read against a blank at 517 nm. Ascorbic acid (vitamin C) was used as standard antioxidants (positive control). A blank sample was prepared by 0.2 ml of DPPH in 3 ml ethanol. A negative control sample was run using ethanol instead of the sample. The radical scavenging inhibition was calculated using the following equation: […]

SMILES | Inhibition (radical scavenging inhibition) [%] | antioxidant potential in DPPH test compared to vitamin C (in words) (DPPH in vitro test, vitamin C as positive control)
O=C1O[C@H]([C@@H](O)CO)C(O)=C1O [vit c, Ascorbic acid, reference compound] | 74 | 
O=S(=O)(O)c1cc(S(=O)(=O)O)c2c(/N=C/c3cccc(Br)c3)cccc2c1 [Product III, 8-(3-bromobenzylideneamino)naphthalene-1,3-disulfonic acid] | 50 | high potential as an antioxidant compared to vitamin C
